The test system of the assay is snout beetles. The assay is described as follows: Field test of individual odorants in yellow Delta traps. The assay is classed as in vivo, Eremnus setulosus and/or Phlyctinus calosus. The following applies: for Numbers of snout beetles caught in yellow Delta traps, Mean: mean of six replications, traps collected after one week; for Numbers of snout beetles caught in yellow Delta traps, Rep. 1: replication 1; for Numbers of snout beetles caught in yellow Delta traps, Rep. 1 / Numbers of snout beetles caught in yellow Delta traps, Rep. 2 / Numbers of snout beetles caught in yellow Delta traps, Rep. 3 / Numbers of snout beetles caught in yellow Delta traps, Rep. 4 / Numbers of snout beetles caught in yellow Delta traps, Rep. 5 / Numbers of snout beetles caught in yellow Delta traps, Rep. 6: traps at ground level against apple tree trunks, collected after one week; for Numbers of snout beetles caught in yellow Delta traps, Rep. 2: replication 2; for Numbers of snout beetles caught in yellow Delta traps, Rep. 3: replication 3; for Numbers of snout beetles caught in yellow Delta traps, Rep. 4: replication 4; for Numbers of snout beetles caught in yellow Delta traps, Rep. 5: replication 5; for Numbers of snout beetles caught in yellow Delta traps, Rep. 6: replication 6. The source says:
Yellow Delta traps fitted with bottom sticky pads upon which odorant dispensers of the various test odorants were applied, were placed on ground level against the trunks of bearing apple trees in the Koue Bokkeveld area in the Western Cape Province, South Africa. Test orchards infested with snout beetles were selected on the farms Dennekruin and Voorsorg in the Ceres-Koue-Bokkeveld area.
Unloaded or “blank” traps with no odorants, but identical to the other traps in all other respects, were used as a control. There are no attractants registered for use on snout beetles on deciduous fruit in South Africa with which to compare the experimental results.
After one week the traps were collected and the snout beetles caught were counted and noted. Six replications were used per odorant tested. In Table 1 below the summarised results of the experiments are presented.

For the compound `O=C(O)C1CC1` [Cyclopropane carboxylic acid], the “Numbers of snout beetles caught in yellow Delta traps, Mean” value (“Numbers … in yellow Delta traps, Mean” for short) was found to be 7.8; the “Numbers of snout beetles caught in yellow Delta traps, Rep. 1” value (“Numbers … in yellow Delta traps, Rep. 1” below) was 6; the “Numbers of snout beetles caught in yellow Delta traps, Rep. 2” value (“Numbers … in yellow Delta traps, Rep. 2” for short) is given as 7; the “Numbers of snout beetles caught in yellow Delta traps, Rep. 3” value (from here on “Numbers … in yellow Delta traps, Rep. 3”) is on record as 5. In addition, the “Numbers of snout beetles caught in yellow Delta traps, Rep. 4” value (from here on “Numbers … in yellow Delta traps, Rep. 4”) is listed as 7; the “Numbers of snout beetles caught in yellow Delta traps, Rep. 5” value (from here on “Numbers … in yellow Delta traps, Rep. 5”) came to 3; the “Numbers of snout beetles caught in yellow Delta traps, Rep. 6” value (from here on “Numbers … in yellow Delta traps, Rep. 6”) came out at 19.
Regarding `COc1cccc(C(C)=O)c1` [3-Methoxy acetophenone], the “Numbers … in yellow Delta traps, Mean” value worked out at 2.5; the “Numbers … in yellow Delta traps, Rep. 1” value was 3; the “Numbers … in yellow Delta traps, Rep. 2” value was 1; the “Numbers … in yellow Delta traps, Rep. 3” value is listed as 6. Moreover, the “Numbers … in yellow Delta traps, Rep. 4” value turned out to be 2; the “Numbers … in yellow Delta traps, Rep. 5” value was determined as 1; the “Numbers … in yellow Delta traps, Rep. 6” value was found to be 2.
For the compound `COc1ccccc1` [Anisole], the “Numbers … in yellow Delta traps, Mean” value was 2.7; the “Numbers … in yellow Delta traps, Rep. 1” value worked out at 4; the “Numbers … in yellow Delta traps, Rep. 2” value is 1; the “Numbers … in yellow Delta traps, Rep. 3” value is recorded as 3. In addition, the “Numbers … in yellow Delta traps, Rep. 4” value worked out at 3; the “Numbers … in yellow Delta traps, Rep. 5” value is recorded as 2; the “Numbers … in yellow Delta traps, Rep. 6” value is on record as 3.
`CC(=O)CCC(C)C` [5-Methyl-2-hexanone]: the “Numbers … in yellow Delta traps, Mean” value stood at 2.7; the “Numbers … in yellow Delta traps, Rep. 1” value amounted to 4; the “Numbers … in yellow Delta traps, Rep. 2” value was 1; the “Numbers … in yellow Delta traps, Rep. 3” value was determined as 1. For the same compound, the “Numbers … in yellow Delta traps, Rep. 4” value is 5; the “Numbers … in yellow Delta traps, Rep. 5” value was found to be 3; the “Numbers … in yellow Delta traps, Rep. 6” value came to 2.
Consider `COC1=C(C)OC(C)C1=O` (centres unmarked) [2,5-Dimethyl-4-methoxy-3(2H)-furanone], for which the “Numbers … in yellow Delta traps, Mean” value is on record as 3.5; the “Numbers … in yellow Delta traps, Rep. 1” value was 2; the “Numbers … in yellow Delta traps, Rep. 2” value worked out at 4; the “Numbers … in yellow Delta traps, Rep. 3” value is given as 3. Further, the “Numbers … in yellow Delta traps, Rep. 4” value is 2; the “Numbers … in yellow Delta traps, Rep. 5” value came to 3; the “Numbers … in yellow Delta traps, Rep. 6” value is reported as 7.

Values taken from US9314019B2, “Snout beetle attractant” (priority 2011, dated 2016).
